# According to US20220175728A1, “PHARMACEUTICAL USE OF CHLOROPHYLLIDE FOR ANTI-VIRAL INFECTION” (I-SHOU UNIVERSITY, priority 2020, published 2022):
# Columns and labels:
# Format in all cases: cell-based
# [1] = tested on: chikungunya virus; experiment: Chikungunya micro-neutralization test; conditions: Vero cells, MOI 0.001, 3 days
# Procedure: (§1) African green monkey kidney Vero cells were infected with chikungunya virus at an MOI of 0.001 in the presence of chlorophyllide at indicated dosages, and then incubated for 3 days, followed by the micro-neutralization test.
# [2] = tested on: African green monkey kidney Vero cells; experiment: Cytotoxicity, control group of chikungunya micro-neutralization test; conditions: 3 days
# Procedure: as §1
# [3] = tested on: Zika virus; experiment: Zika micro-neutralization test; conditions: Vero cells, MOI 0.1, 4 to 5 days
# Procedure: (§2) African green monkey kidney Vero cells were infected with Zika virus at an MOI of 0.1 in the presence of chlorophyllide at indicated dosages, and then incubated for 4 to 5 days, followed by the micro-neutralization test.
# [4] = tested on: African green monkey kidney Vero cells; experiment: Cytotoxicity, control group of Zika micro-neutralization test; conditions: 4 to 5 days
# Procedure: as §2
substance,measurement,setting,value
chlorophyllide,EC50 for antiviral activity against chikungunya,[1],18.75 µg/mL
same,cytotoxicity dose,[2],greater than 100 μg/mL
same,EC50 for antiviral activity against Zika,[3],12.5 µg/mL
same,cytotoxicity dose,[4],greater than 100 μg/mL
